Assay results published in patent US9247759B2, “Identification of human T2R receptors that respond to bitter compounds that elicit the bitter taste in compositions, and the use thereof in assays to identify compounds that inhibit (block) bitter taste in compositions and use thereof” (SENOMYX, INC., priority 2007, dated 2016).

Assays:
hT2R14 [1] = biological target: T1, hT2R14 (Homo sapiens (Human), UniProt Q9NYV8); test: hT2R14 antagonist high-throughput FLIPR assay, stable cell line with G16g44, agonist aristolochic acid; format: cell-based; conditions: read-out: IC50 on hT2R14 bitter receptor
T1 sequence (Q9NYV8 whole entry): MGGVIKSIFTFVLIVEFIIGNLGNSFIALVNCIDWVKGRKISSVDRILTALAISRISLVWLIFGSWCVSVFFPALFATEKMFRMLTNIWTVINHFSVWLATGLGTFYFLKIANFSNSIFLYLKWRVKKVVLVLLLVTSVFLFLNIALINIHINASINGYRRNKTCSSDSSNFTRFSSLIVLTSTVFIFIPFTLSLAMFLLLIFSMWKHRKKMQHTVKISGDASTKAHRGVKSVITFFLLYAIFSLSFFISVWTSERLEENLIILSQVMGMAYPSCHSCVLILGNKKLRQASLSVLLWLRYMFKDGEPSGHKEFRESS
Procedure, shortened: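 HEK293 cells stably expressing hT2R14 with chimeric G16g44 were stimulated with aristolochic acid (3 μM), giving 70-80% of maximal receptor activity. Test compounds were added together with the agonist, and antagonism was read as fluorescent calcium signal on FLIPR.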

hT2R3 = hT2R3 (Homo sapiens (Human), UniProt Q9NYW6); test: hT2R panel inhibition, transient HEK293 G16g44, agonist Chloroquine pH6.5 50 μM; format: cell-based; conditions: HEK293, compound at 25 μM; receptor activated to EC80 with the corresponding agonist; read-out: screening result against bitter receptor 3
Sequence of hT2R3 (Q9NYW6 whole entry): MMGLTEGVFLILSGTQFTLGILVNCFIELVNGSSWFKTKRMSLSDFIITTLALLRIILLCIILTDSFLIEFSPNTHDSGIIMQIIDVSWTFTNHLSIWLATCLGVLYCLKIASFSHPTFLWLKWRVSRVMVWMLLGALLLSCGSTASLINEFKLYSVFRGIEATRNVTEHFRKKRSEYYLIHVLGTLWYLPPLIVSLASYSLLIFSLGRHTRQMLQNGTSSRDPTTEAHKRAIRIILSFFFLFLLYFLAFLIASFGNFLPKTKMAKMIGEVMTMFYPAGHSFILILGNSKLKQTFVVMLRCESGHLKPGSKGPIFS
Procedure, shortened: (§1)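 Agonist concentrations were set at EC80 for each receptor. Activity was compared with and without the test compound, and the reduction recorded as inhibition, across 22 individually transfected human T2Rs.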

hT2R5 = hT2R5 (Homo sapiens (Human), UniProt Q9NYW4); test: hT2R panel inhibition, transient HEK293 G16g44, agonist Picoline 10 mM; format: cell-based; conditions: HEK293, compound at 25 μM; receptor activated to EC80 with the corresponding agonist; read-out: screening result against bitter receptor 5
Sequence of hT2R5 (Q9NYW4 whole entry): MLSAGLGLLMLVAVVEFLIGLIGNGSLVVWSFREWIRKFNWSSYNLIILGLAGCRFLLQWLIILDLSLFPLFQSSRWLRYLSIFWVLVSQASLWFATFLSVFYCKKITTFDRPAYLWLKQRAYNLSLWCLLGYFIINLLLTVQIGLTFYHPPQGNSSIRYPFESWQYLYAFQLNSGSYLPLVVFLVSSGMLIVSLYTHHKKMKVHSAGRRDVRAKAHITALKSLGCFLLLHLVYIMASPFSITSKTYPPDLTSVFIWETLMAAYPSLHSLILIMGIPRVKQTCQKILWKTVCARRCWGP
Procedure, shortened: as §1

hT2R7 = hT2R7 (Homo sapiens (Human), UniProt Q9NYW3); test: hT2R panel inhibition, transient HEK293 G16g44, agonist Chloroquine pH6.5 10 mM; format: cell-based; conditions: HEK293, compound at 25 μM; receptor activated to EC80 with the corresponding agonist; read-out: screening result against bitter receptor 7
Sequence of hT2R7 (Q9NYW3 whole entry): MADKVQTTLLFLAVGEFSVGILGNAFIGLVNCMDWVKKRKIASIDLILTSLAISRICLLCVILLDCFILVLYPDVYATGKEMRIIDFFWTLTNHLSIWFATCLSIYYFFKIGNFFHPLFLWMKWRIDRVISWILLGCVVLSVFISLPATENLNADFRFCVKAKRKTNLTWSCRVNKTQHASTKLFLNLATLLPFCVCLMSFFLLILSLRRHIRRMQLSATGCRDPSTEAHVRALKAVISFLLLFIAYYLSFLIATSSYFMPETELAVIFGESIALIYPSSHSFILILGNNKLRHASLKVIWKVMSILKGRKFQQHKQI
Procedure, shortened: as §1

hT2R10 = hT2R10 (Homo sapiens (Human), UniProt Q9NYW0); test: hT2R panel inhibition, transient HEK293 G16g44, agonist Strychnine 50 μM; format: cell-based; conditions: HEK293, read-out: screening result against bitter receptor 10, compound at 25 μM; receptor activated to EC80 with the corresponding agonist
Sequence of hT2R10 (Q9NYW0 whole entry): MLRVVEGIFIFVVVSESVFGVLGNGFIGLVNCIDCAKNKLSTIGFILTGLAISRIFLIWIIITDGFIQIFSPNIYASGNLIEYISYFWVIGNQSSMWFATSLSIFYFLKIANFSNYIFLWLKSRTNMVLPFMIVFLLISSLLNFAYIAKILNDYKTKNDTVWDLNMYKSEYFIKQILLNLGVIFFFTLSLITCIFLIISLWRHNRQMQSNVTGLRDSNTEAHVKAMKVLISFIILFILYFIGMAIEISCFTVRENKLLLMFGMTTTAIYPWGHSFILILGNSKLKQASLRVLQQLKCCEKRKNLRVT

hT2R13 = hT2R13 (Homo sapiens (Human), UniProt Q9NYV9); test: hT2R panel inhibition, transient HEK293 G16g44, agonist Oxyphenonium 1 mM; format: cell-based; conditions: HEK293, compound at 25 μM; receptor activated to EC80 with the corresponding agonist; read-out: screening result against bitter receptor 13
Sequence of hT2R13 (Q9NYV9 whole entry): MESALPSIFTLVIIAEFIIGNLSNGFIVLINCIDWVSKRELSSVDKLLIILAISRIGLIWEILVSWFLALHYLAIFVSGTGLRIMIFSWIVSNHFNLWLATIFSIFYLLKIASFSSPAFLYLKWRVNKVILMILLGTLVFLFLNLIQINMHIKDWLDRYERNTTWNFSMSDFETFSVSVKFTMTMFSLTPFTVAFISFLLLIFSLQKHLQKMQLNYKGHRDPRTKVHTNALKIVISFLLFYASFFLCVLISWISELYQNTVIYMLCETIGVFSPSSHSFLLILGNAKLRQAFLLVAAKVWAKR
Procedure: Specifically, in order to evaluate the inhibitory selectivity of the Compound C compound, this compound was tested against 22 human T2Rs which were deorphaned by Senomyx. These receptors and the bitter ligands that activate these human T2Rs are reported in earlier patent applications which are incorporated by reference herein. These 22 human T2Rs are hT2R1, 3, 4, 5, 7, 8, 9, 10, 13, 14, 16, 44, 51, 54, 55, 61, 63, 64, 65, 67, 71 and 75. The amino acid and nucleic acid sequences of all of these T2Rs may be found in these earlier patent applications. These human T2Rs were each individually transiently transfected into HEK293 cells that stably express the promiscuous G protein G16g44 and functional assays were effected using these receptors as disclosed in these same patent applications. […] The ligands were used at EC80 concentration levels. The list of bitter ligands utilized and the tested ligand concentrations are contained in Table 5 of this example.
Relating to the foregoing, FIG. 5 contains experimental results wherein Compound C was tested with different agonist compounds. The inhibition activity is represented by the reduction of receptor activity in the presence of Compound C. […] These 13 hT2Rs are hT2R3, 7, 10, 14, 16, 44, 51, 55, 61, 63, 64, 65, and 71.

hT2R14 [2] = biological target: T1, hT2R14; test: hT2R panel inhibition, transient HEK293 G16g44, agonist Aristolochic Acid 2 μM; format: cell-based; conditions: HEK293, compound at 25 μM; receptor activated to EC80 with the corresponding agonist; read-out: screening result against bitter receptor 14
Procedure, shortened: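 Each hT2R was transiently transfected into HEK293 cells stably expressing G16g44 and assayed functionally for inhibition of agonist response. Agonists were applied at EC80: andrographolide at 0.5 mM for hT2R8 and aristolochic acid at 2 μM for hT2R14.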

hT2R16 = hT2R16 (Homo sapiens (Human), UniProt Q9NYV7); test: hT2R panel inhibition, transient HEK293 G16g44, agonist Salicin 1 mM; format: cell-based; conditions: HEK293, compound at 25 μM; receptor activated to EC80 with the corresponding agonist; read-out: screening result against bitter receptor 16
Sequence of hT2R16 (Q9NYV7 whole entry): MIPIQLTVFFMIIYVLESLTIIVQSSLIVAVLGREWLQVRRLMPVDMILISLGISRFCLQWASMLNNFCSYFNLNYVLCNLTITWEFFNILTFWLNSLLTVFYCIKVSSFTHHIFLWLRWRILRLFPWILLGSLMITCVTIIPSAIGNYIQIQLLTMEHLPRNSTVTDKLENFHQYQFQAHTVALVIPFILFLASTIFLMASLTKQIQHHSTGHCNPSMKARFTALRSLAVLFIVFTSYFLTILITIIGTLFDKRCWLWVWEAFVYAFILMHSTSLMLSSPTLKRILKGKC
Procedure, shortened: as §1

hT2R44 = test: hT2R panel inhibition, transient HEK293 G16g44, agonist Denatonium 0.5 μM; format: cell-based, human; conditions: compound at 25 μM; receptor activated to EC80 with the corresponding agonist
Procedure, shortened: as §1

hT2R51 = hT2R51 (Homo sapiens (Human), UniProt P59533); test: hT2R panel inhibition, transient HEK293 G16g44, agonist Prop 2.5 μM; format: cell-based; conditions: HEK293, compound at 25 μM; receptor activated to EC80 with the corresponding agonist; read-out: screening result against bitter receptor 51
Sequence of hT2R51 (P59533 whole entry): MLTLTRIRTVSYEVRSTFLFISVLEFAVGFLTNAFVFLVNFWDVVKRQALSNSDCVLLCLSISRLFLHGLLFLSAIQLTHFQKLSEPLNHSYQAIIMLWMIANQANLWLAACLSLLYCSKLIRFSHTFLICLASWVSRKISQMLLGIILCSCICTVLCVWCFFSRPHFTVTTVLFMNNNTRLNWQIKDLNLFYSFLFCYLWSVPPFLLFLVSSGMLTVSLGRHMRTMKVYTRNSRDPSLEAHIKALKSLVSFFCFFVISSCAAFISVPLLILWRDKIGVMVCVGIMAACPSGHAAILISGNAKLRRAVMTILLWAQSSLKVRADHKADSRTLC
Procedure, shortened: as §1

hT2R54 = test: hT2R panel inhibition, transient HEK293 G16g44, agonist Ranitidine 5 mM; format: cell-based, human; conditions: compound at 25 μM; receptor activated to EC80 with the corresponding agonist
Procedure, shortened: as §1

hT2R55 = test: hT2R panel inhibition, transient HEK293 G16g44, agonist Cinchonine 150 μM; format: cell-based, human; conditions: compound at 25 μM; receptor activated to EC80 with the corresponding agonist
Procedure, shortened: as §1

hT2R61 = hT2R61 (Homo sapiens (Human), UniProt P59537); test: hT2R panel inhibition, transient HEK293 G16g44, agonist Aristolochic Acid 25 nM; format: cell-based; conditions: HEK293, compound at 25 μM; receptor activated to EC80 with the corresponding agonist; read-out: screening result against bitter receptor 61
Sequence of hT2R61 (P59537 whole entry): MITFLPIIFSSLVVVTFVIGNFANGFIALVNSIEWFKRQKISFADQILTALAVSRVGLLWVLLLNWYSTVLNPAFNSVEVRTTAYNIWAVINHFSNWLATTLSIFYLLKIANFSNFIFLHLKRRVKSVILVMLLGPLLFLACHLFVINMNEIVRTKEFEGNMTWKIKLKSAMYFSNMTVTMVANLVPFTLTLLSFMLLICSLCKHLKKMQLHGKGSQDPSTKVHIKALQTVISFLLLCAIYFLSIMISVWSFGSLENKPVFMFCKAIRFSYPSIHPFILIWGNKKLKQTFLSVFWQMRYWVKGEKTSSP
Procedure, shortened: as §1

hT2R63 = test: hT2R panel inhibition, transient HEK293 G16g44, agonist Caffeine 1 mM or Andrographolide 100 μM; format: cell-based, human; conditions: compound at 25 μM; receptor activated to EC80 with the corresponding agonist
Procedure, shortened: as §1

hT2R64 = hT2R64 (Homo sapiens (Human), UniProt P59538); test: hT2R panel inhibition, transient HEK293 G16g44, agonist Aristolochic Acid 1 μM; format: cell-based; conditions: HEK293, compound at 25 μM; receptor activated to EC80 with the corresponding agonist; read-out: screening result against bitter receptor 64
Sequence of hT2R64 (P59538 whole entry): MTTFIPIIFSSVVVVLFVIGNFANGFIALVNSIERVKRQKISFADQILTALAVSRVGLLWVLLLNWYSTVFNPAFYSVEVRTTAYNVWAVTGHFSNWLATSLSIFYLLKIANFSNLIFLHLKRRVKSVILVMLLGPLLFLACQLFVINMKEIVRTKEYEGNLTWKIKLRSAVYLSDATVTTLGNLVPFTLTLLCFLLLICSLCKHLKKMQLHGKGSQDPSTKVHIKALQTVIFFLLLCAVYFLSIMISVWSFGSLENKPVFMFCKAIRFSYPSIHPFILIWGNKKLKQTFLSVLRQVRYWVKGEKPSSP
Procedure, shortened: as §1

hT2R65 = test: hT2R panel inhibition, transient HEK293 G16g44, agonist Oleuropein 1 mM; format: cell-based, human; conditions: compound at 25 μM; receptor activated to EC80 with the corresponding agonist
Procedure, shortened: as §1

hT2R67 = test: hT2R panel inhibition, transient HEK293 G16g44, agonist Andrographolide 5 μM; format: cell-based, human; conditions: compound at 25 μM; receptor activated to EC80 with the corresponding agonist
Procedure, shortened: as §1

hT2R71 = hT2R71 (Homo sapiens (Human), UniProt P59536); test: hT2R panel inhibition, transient HEK293 G16g44, agonist Picric Acid 10 μM; format: cell-based; conditions: HEK293, compound at 25 μM; receptor activated to EC80 with the corresponding agonist; read-out: screening result against bitter receptor 71
Sequence of hT2R71 (P59536 whole entry): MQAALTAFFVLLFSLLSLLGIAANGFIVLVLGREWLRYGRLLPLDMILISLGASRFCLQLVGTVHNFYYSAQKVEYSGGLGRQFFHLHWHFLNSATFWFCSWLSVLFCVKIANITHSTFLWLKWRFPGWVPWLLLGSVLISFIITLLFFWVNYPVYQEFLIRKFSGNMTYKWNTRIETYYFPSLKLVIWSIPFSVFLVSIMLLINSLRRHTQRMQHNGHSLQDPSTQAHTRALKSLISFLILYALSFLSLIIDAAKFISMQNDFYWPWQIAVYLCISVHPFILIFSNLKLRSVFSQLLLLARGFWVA
Procedure, shortened: as §1

hT2R75 = hT2R75 (Homo sapiens (Human), UniProt P59540); test: hT2R panel inhibition, transient HEK293 G16g44, agonist Strychnine 1 μM; format: cell-based; conditions: HEK293, read-out: screening result against bitter receptor 75, compound at 25 μM; receptor activated to EC80 with the corresponding agonist
Sequence of hT2R75 (P59540 whole entry): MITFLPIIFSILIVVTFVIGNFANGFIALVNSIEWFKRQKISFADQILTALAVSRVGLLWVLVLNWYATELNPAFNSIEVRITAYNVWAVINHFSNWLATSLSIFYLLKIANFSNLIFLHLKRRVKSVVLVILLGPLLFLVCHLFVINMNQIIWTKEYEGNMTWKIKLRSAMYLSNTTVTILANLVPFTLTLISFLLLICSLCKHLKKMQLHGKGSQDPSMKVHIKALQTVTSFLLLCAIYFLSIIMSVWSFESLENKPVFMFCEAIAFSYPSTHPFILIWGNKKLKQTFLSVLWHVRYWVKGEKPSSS

hT2R4 = hT2R4 (Homo sapiens (Human), UniProt Q9NYW5); test: hT2R panel inhibition, transient HEK293 G16g44, agonist Chloroquine pH6.5 5 mM; format: cell-based; conditions: HEK293, compound at 25 μM; receptor activated to EC80 with the corresponding agonist; class symbols; read-out: screening result against bitter receptor 4
Sequence of hT2R4 (Q9NYW5 whole entry): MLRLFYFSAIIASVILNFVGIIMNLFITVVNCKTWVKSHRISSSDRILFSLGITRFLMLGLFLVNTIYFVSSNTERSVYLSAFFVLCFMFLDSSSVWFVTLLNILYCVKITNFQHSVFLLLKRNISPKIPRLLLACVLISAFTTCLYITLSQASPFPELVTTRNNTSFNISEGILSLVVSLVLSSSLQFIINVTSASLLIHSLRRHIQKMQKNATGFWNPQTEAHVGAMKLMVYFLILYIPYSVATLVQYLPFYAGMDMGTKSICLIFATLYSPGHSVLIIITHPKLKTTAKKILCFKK
Procedure, shortened: as §1

| Structure (SMILES) | IC50 (hT2R14 [1]) | inhibition at 25 µM (hT2R3) | inhibition at 25 µM (hT2R5) | inhibition at 25 µM (hT2R7) | inhibition at 25 µM (hT2R10) | inhibition at 25 µM (hT2R13) | inhibition at 25 µM (hT2R14 [2]) | inhibition at 25 µM (hT2R16) | screening result against bitter receptor 44 (hT2R44) | inhibition at 25 µM (hT2R51) | screening result against bitter receptor 54 (hT2R54) | screening result against bitter receptor 55 (hT2R55) | inhibition at 25 µM (hT2R61) | screening result against bitter receptor 63 (hT2R63) | inhibition at 25 µM (hT2R64) | screening result against bitter receptor 65 (hT2R65) | screening result against bitter receptor 67 (hT2R67) | inhibition at 25 µM (hT2R71) | inhibition at 25 µM (hT2R75) | inhibition at 25 µM (hT2R4) |
| --- | --- | --- | --- | --- | --- | --- | --- | --- | --- | --- | --- | --- | --- | --- | --- | --- | --- | --- | --- | --- |
| O=C(O)c1ccc(S(=O)(=O)N(Cc2ccccc2)Cc2ccco2)cc1 [Example 5-5, 4-(N-benzyl-N-(furan-2-ylmethyl)sulfamoyl)benzoic acid] | 4.6 µM | 40 to 60% | 20 to 40% | 40 to 60% | 20 to 40% | 20 to 40% | > 80% | 40 to 60% | ++ (40% to 60% inhibition = ++) | 20 to 40% | + (20% to 40% inhibition = +) | ++++ (80% or greater inhibition = ++++) | > 80% | ++++ (80% or greater inhibition = ++++) | 60 to 80% | + (20% to 40% inhibition = +) | + (20% to 40% inhibition = +) | 60 to 80% | 20 to 40% |  |
| COc1ccc(CN(Cc2ccoc2)S(=O)(=O)c2ccc(C(=O)O)cc2)cc1 [Example 5-27, 4-(N-(furan-3-ylmethyl)-N-(4-methoxybenzyl)sulfamoyl)benzoic acid] |  | 40 to 60% | 40 to 60% | 20 to 40% | 60 to 80% | 20 to 40% | > 80% | 20 to 40% | +++ (60% to 80% inhibition = +++) | 40 to 60% | ++ (40% to 60% inhibition = ++) | ++++ (80% or greater inhibition = ++++) | > 80% | +++ (60% to 80% inhibition = +++) | 60 to 80% | ++ (40% to 60% inhibition = ++) | ++ (40% to 60% inhibition = ++) | 60 to 80% | 20 to 40% |  |
| O=C(O)c1ccc(S(=O)(=O)N(Cc2ccccc2)Cc2ccccc2)cc1 [Example 5-28, 4-(N,N-dibenzylsulfamoyl)benzoic acid] | 7.74 µM |  |  |  |  | 20 to 40% | > 80% | 20 to 40% | + (20% to 40% inhibition = +) | 40 to 60% | + (20% to 40% inhibition = +) | ++++ (80% or greater inhibition = ++++) | 40 to 60% | ++++ (80% or greater inhibition = ++++) | > 80% |  | + (20% to 40% inhibition = +) | 40 to 60% | 20 to 40% |  |
| CCc1ccc(CN(Cc2ccccc2)S(=O)(=O)c2ccc(C(=O)O)cc2)cc1 [Example 5-85, 4-(N-benzyl-N-(4-ethylbenzyl)sulfamoyl)benzoic acid] |  | 40 to 60% | 20 to 40% | 20 to 40% | 40 to 60% | 20 to 40% | > 80% | 40 to 60% |  | 20 to 40% | +++ (60% to 80% inhibition = +++) | +++ (60% to 80% inhibition = +++) | > 80% | +++ (60% to 80% inhibition = +++) |  | +++ (60% to 80% inhibition = +++) | ++ (40% to 60% inhibition = ++) | 20 to 40% | 20 to 40% |  |
| COc1ccc(CN(C2CCCc3ccccc32)S(=O)(=O)c2ccc(C(=O)O)cc2)cc1 (centres unmarked) [Example 5-96, 4-(N-(4-methoxybenzyl)-N-(1,2,3,4-tetrahydronaphthalen-1-yl)sulfamoyl)benzoic acid] |  | 20 to 40% |  |  |  | 20 to 40% | > 80% | 20 to 40% | +++ (60% to 80% inhibition = +++) |  |  | ++++ (80% or greater inhibition = ++++) | > 80% | ++++ (80% or greater inhibition = ++++) | 60 to 80% | ++++ (80% or greater inhibition = ++++) | + (20% to 40% inhibition = +) | 40 to 60% |  | 20 to 40% |
